Read-outs that look alike come from different tables or passages of the source.
Columns and labels:
AR protein = target: T1, AR protein (Homo sapiens, UniProt P10275); assay: Western blotting analysis of AR protein levels in VCaP cells, band quantification, DC50/DC90; assay type: cell-based; details: VCaP cells, Table 6; read-out: VCaP DC50
T1 construct: endogenous in cells; host or cells: VCaP
T1 sequence (P10275 1-920): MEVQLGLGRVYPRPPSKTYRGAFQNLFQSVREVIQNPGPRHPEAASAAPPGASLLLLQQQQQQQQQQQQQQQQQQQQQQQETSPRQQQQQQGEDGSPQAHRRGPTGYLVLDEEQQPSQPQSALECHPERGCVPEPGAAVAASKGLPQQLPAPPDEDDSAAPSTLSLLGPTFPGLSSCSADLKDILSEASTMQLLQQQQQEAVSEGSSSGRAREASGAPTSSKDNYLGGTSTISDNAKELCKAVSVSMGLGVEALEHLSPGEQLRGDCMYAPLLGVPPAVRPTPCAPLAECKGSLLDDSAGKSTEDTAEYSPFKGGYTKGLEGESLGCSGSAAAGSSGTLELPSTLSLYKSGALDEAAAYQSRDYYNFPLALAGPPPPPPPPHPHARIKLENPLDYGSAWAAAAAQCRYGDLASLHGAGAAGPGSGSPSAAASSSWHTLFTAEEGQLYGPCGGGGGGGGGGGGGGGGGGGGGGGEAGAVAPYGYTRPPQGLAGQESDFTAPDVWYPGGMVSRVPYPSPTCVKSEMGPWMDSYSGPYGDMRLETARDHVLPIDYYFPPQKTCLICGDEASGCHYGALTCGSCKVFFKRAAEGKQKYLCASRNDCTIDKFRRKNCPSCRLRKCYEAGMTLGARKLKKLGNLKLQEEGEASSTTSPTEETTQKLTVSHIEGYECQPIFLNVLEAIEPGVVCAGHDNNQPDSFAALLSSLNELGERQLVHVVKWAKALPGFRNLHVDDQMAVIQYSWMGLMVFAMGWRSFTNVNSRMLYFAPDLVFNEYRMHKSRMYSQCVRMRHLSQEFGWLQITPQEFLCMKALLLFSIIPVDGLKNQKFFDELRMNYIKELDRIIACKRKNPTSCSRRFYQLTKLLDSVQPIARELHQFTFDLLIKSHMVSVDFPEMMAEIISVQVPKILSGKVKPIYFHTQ
Method in brief: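 VCaP cells treated with compounds, lysed in RIPA and probed for AR by Western blot with GAPDH loading control. Band intensities normalised to GAPDH; DC50 from curve fit, DC90 calculated from DC50 and Hill slope via four-parameter equation.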

[1] = Mouse PK studies after oral and IV dosing; assay type: in vivo; details: for F: PO 3 mg/kg vs IV 1 mg/kg; for AUC(0-t) / clearance / half-life / Vd / Cmax / Tmax: in vivo; for clearance: read-out: IV Cl (converted); for Vd: read-out: IV VSS
Experimental: The pharmacokinetics of representative Compounds of the Disclosure were determined after oral and IV dosing at the concentrations indicated in mouse (Table 7). […] The vehicles used in these studies are either (i) 10% PEG400+90% PBS (adjusted to pH to 8.0 by 0.5 N NaOH); or (ii) 100% PEG200.

[2] = iv, 1 mg/kg, IV, dose 1 mg/kg, read-out: IV AUC(0 − t)
[3] = iv, 1 mg/kg, IV, dose 1 mg/kg, read-out: IV T1/2 (converted)
[4] = po, 3 mg/kg, PO, dose 3 mg/kg, read-out: PO AUC(0 − t)
[5] = po, 3 mg/kg, PO, dose 3 mg/kg, read-out: PO T1/2 (converted)

| SMILES | DC50 (AR protein) | F [1] | AUC(0-t) [1, 2] | clearance ([1]; iv, 1 mg/kg, IV, dose 1 mg/kg) | half-life [1, 3] | Vd ([1]; iv, 1 mg/kg, IV, dose 1 mg/kg) | Cmax ([1]; po, 3 mg/kg) | Tmax ([1]; po, 3 mg/kg) | AUC(0-t) [1, 4] | half-life [1, 5] |
| --- | --- | --- | --- | --- | --- | --- | --- | --- | --- | --- |
| C[C@H]1CC2(CCN(c3ccc(C(=O)N4CCN(CC5CN(c6ccc7c(c6)C(=O)N(C6CCC(=O)NC6=O)C7=O)C5)CC4)cc3F)CC2)CN1c1ccc(C#N)c(Cl)c1 (stereo partly drawn) [Cpd. No. 528, 2-chloro-4-((3S)-8-(4-(4-((1-(2-(2,6-dioxopiperidin-3-yl)-1,3-dioxoisoindolin-5-yl)azetidin-3-yl)methyl)piperazine-1-carbonyl)-2-fluorophenyl)-3-methyl-2,8-diazaspiro[4.5]decan-2-yl)benzonitrile] | < 1 nM | 33% | 1710 ng·h/mL | 8.33 mL/min/kg | 8.9 h | 5.7 L/kg | 149 ng/mL | 1.7 h | 1680 ng·h/mL | 8.8 h |
| C[C@H]1CC2(CCN(c3ccc(C(=O)N4CCN(CC5CN(c6ccc7c(c6)C(=O)N(C6CCC(=O)NC6=O)C7=O)C5)CC4)nn3)CC2)CN1c1ccc(C#N)c(Cl)c1 (stereo partly drawn) [Cpd. No. 484, 2-chloro-4-((3S)-8-(6-(4-((1-(2-(2,6-dioxopiperidin-3-yl)-1,3-dioxoisoindolin-5-yl)azetidin-3-yl)methyl)piperazine-1-carbonyl)pyridazin-3-yl)-3-methyl-2,8-diazaspiro[4.5]decan-2-yl)benzonitrile] | 1 to 10 nM | 46% | 7770 ng·h/mL | 2 mL/min/kg | 6.1 h | 0.62 L/kg | 2380 ng/mL | 1.3 h | 10600 ng·h/mL | 4.5 h |
| C[C@H]1CC2(CCN(c3ccc(C(=O)N4CCN(CC5CCN(c6ccc7c(c6)C(=O)N(C6CCC(=O)NC6=O)C7=O)CC5)CC4)nn3)CC2)CN1c1ccc(C#N)c(Cl)c1 (stereo partly drawn) [Cpd. No. 491, 2-chloro-4-((3S)-8-(6-(4-((1-(2-(2,6-dioxopiperidin-3-yl)-1,3-dioxoisoindolin-5-yl)piperidin-4-yl)methyl)piperazine-1-carbonyl)pyridazin-3-yl)-3-methyl-2,8-diazaspiro[4.5]decan-2-yl)benzonitrile] | 1 to 10 nM | 34% | 2640 ng·h/mL | 6 mL/min/kg | 7.7 h | 2.09 L/kg | 789 ng/mL | 1 h | 2710 ng·h/mL | 5.7 h |
| C[C@H]1CC2(CCN(c3ccc(C(=O)N4CCN(CC5CN(c6ccc7c(c6)C(=O)N(C6CCC(=O)NC6=O)C7=O)C5)CC4)c(F)c3)CC2)CN1c1ccc(C#N)c(Cl)c1 (stereo partly drawn) [Cpd. No. 529, 2-chloro-4-((3S)-8-(4-(4-((1-(2-(2,6-dioxopiperidin-3-yl)-1,3-dioxoisoindolin-5-yl)azetidin-3-yl)methyl)piperazine-1-carbonyl)-3-fluorophenyl)-3-methyl-2,8-diazaspiro[4.5]decan-2-yl)benzonitrile] | 1 to 10 nM | 45% | 5130 ng·h/mL | 3.33 mL/min/kg | 10.2 h | 2.2 L/kg | 507 ng/mL | 3.3 h | 6920 ng·h/mL | 8.5 h |
| C[C@H]1CC2(CCN(c3cnc(C(=O)N4CCC(CN5CCN(c6ccc7c(c6)C(=O)N(C6CCC(=O)NC6=O)C7=O)CC5)CC4)cn3)CC2)CN1c1ccc(C#N)c(Cl)c1 (stereo partly drawn) [Cpd. No. 492, 2-chloro-4-((3S)-8-(5-(4-((4-(2-(2,6-dioxopiperidin-3-yl)-1,3-dioxoisoindolin-5-yl)piperazin-1-yl)methyl)piperidine-1-carbonyl)pyrazin-2-yl)-3-methyl-2,8-diazaspiro[4.5]decan-2-yl)benzonitrile] | 1 to 10 nM | 15% | 277 ng·h/mL | 54.5 mL/min/kg | 3.3 h | 7.71 L/kg | 59 ng/mL | 0.5 h | 123 ng·h/mL | 2.1 h |
